Here are results for 24 molecules from patent US5811450A, “Thiepane compounds” (Gilead Sciences, Inc., priority 1996, dated 1998).

The target in one assay is T1, HIV protease (Human immunodeficiency virus type 1 group M subtype B, UniProt P04585).
T1 construct: fluorometric method for measurement of HIV-protease (HIV-PR) activity utilizing a synthetic peptide substrate
As to the kind of experiment: biochemical. As for the experimental part: Compositions to be subjected to enzyme assay are lyophilited and diluted in DMSO to 100-1000 μM. Compositions having apparent IC50 <1 μm are diluted to 100 μM.
The assay is a fluorometric method for measurement of HIV-protease (HIV-PR) activity utilizing a synthetic peptide substrate for HIV-PR based on that described by Matayoshi, E.D.; Wang, G.T.; Krafft, G.A.; and Erickson, J.W.; Science, 1990, 247, 954-958; and Wang, G.T.; Huffker, J.A.; Matayoshi, E.; and Krafft, G.A.; Tetrahedron Lett., 1990, 165 6493-6496.
Buffer: 0.1M sodium acetate
1.0 mM ethylenediaminetetraacetic acid (EDTA)
1.0 mM dithiothreitol (DTT)
10% dimethyl sulfoxide (DMSO)
1 mg/mL bovine serum albumin (BSA) adjusted to pH 4.7
1. Prepare a solution of 2 μM HIV Protease Substrate 1 in the Assay Buffer.
2. Dispense the substrate solution into UV-pass fluorescence cuvettes (1 cm pathlength).
3. Set the excitation and emission monochromators of the spectrofluorimeter to 340 nm and 490 nm, respectively. To obtain the same kinetic constants as reported, cuvettes should be held at 37° C. throughout the assay.
4. Begin each assay by adding a small amount (<3% of the final volume) of HIV-PR-containing solution diluted tin the Assay Buffer.
5. Measure the initial rate of cleavage of fluorogenic substrate by monitoring the increase in fluorescence signal at 490 nm for 5-8 min at 37° C.
(§1) The apparent IC50 and IC50 values reported below in Table 25 were determined using the assays of Example 34 and 35, respectively. The values are indicated as follows: +=10-50 μM, ++2-10 μM, and +++<2 μM.

For a further assay, the system named is HIV IIIB. As to the kind of experiment: XTT cell culture assay, cells infected with HIV IIIB. The format is cell-based. The note with it: Human immunodeficiency virus 1, IIIB, read-out: Cell Culture IC50. The protocol: The method of Weislow, O.S.; Kiser, R.; Fine, D.L.; Bader, J.; Shoemaker, R.H.; and Boyd, M.R.; I. Nat. Cancer Institute, 1989, 81(8) 577-586 was applied with the following minor modifications:. Infection of cells with HIV IIIB was performed without polybrene. Cells were distributed to Microtiter wells containing the compound of the invention 4 h after infection with HIV IIIB. 2×XTT was added at 5-6 days post infection. 20 μl 2% Triton X-100 was added 1 hour after XTT addition.
1. Add 4 ml of XTT (5 mg/ml) to 8 ml of Deficient RPMI medium (no phenol red, no serum). Mix briefly at 45° C. to dissolve XTT.
2. Add 800 μl of PMS (0.2 mg/ml) to XTT/RPMI mixture.
3. Remove […] of cell free media from each well of a 96 well plate and replace with 100 μl of the XTT/PMS mixture.
4. Incubate at 37° C. for 1.5-2 h.
5. Read absorbance at 450 nm. Absorbance values are directly proportional to cell viability.
as §1

[1] abbreviates: HIV protease, fluorogenic peptide substrate, pH 4.7, 37° C., read-out: Apparent Enzyme IC50.
[2] abbreviates: XTT assay, HIV IIIB infected cells, XTT 5-6 days post infection.

Where two headings read alike, the source gives them in different places. Bounds are passed on as bounds.

As for `O=S1(=O)[C@H](Cc2ccccc2)[C@H](OCc2ccccn2)[C@H](O)[C@@H](O)[C@@H](OCc2cccc[n+]2[O-])[C@H]1Cc1ccccc1` [120/9], the IC50 (as a rule, the concentration needed to halve the response being measured) was below 2000 nM on HIV protease (setting [1]) and 2000 to 10000 nM in the assay on HIV IIIB (setting [2]). Turning to `[O-][S+]1CC(OCc2ccccc2)C(O)C(O)C(OCc2ccccc2)C1Cc1ccccc1` (centres unmarked) [107/4], the IC50 at HIV protease (setting [1]) fell in the range of 2000 to 10000 nM; in the assay on HIV IIIB (setting [2]) it was 10000 to 50000 nM. On to `CN(C)c1nc(CO[C@@H]2[C@H](O)[C@@H](O)[C@@H](OCc3csc(N(C)C)n3)[C@@H](Cc3ccccc3)S(=O)(=O)[C@@H]2Cc2ccccc2)cs1` [125/14], for which, on HIV protease (setting [1]), the IC50 is below 2000 nM. For the molecule `Nc1cccc(COC2C(O)C(O)C(OCc3cccc(N)c3)C(Cc3ccccc3)S(=O)(=O)C2Cc2ccccc2)c1` (centres unmarked) [120/46], the IC50 in the assay with HIV IIIB (setting [2]) is below 2000 nM.

For `COc1cccc(COC2C(O)C(O)C(OCc3cccc(OC)c3)C(Cc3ccccc3)S(=O)(=O)C2Cc2ccccc2)c1` (centres unmarked) [120/34], the IC50 in the assay with HIV IIIB (setting [2]) was below 2000 nM. The same measure, in the same setting: then `Cc1nc(COC2C(O)C(O)C(OCc3csc(C)n3)C(Cc3ccccc3)S(=O)(=O)C2Cc2ccccc2)cs1` (centres unmarked) [120/22], with 10000 to 50000 nM. As to `N#Cc1ccccc1O[C@@H]1[C@H](O)[C@@H](O)[C@@H](Oc2ccccc2C#N)C[S@+]([O-])[C@@H]1Cc1ccccc1` [107/8], the IC50 on HIV protease (setting [1]) lay within 10000 to 50000 nM. Regarding `Nc1ccc(OC2C(O)C(O)C(Oc3ccc(N)c(C(F)(F)F)c3)C(Cc3ccccc3)S(=O)(=O)C2Cc2ccccc2)cc1C(F)(F)F` (centres unmarked) [125/28], the IC50 on HIV protease (setting [1]) and in the assay on HIV IIIB (setting [2]) was below 2000 nM in each case. In the case of `O=S1(=O)[C@H](Cc2ccccc2)[C@H](OCc2ccccn2)[C@H](O)[C@@H](O)[C@@H](OCc2ccccn2)[C@H]1Cc1ccccc1` [120/8], the results for the IC50 on HIV protease (setting [1]) and in the assay on HIV IIIB (setting [2]) were below 2000 nM and 2000 to 10000 nM, respectively. With `O=[N+]([O-])c1ccc(OC2C(O)C(O)C(Oc3ccc([N+](=O)[O-])cc3)C(Cc3ccccc3)S(=O)(=O)C2Cc2ccccc2)cc1` (centres unmarked) [125/17], the IC50 on HIV protease and in the assay on HIV IIIB was below 2000 nM each time. In the case of `O=S1(=O)C(Cc2ccccc2)C(OCc2cncs2)C(O)C(O)C(OCc2cncs2)C1Cc1ccccc1` (centres unmarked) [120/25], in the assay on HIV IIIB (setting [2]), the IC50 was below 2000 nM. Take `O=[N+]([O-])c1cccc(COC2C(O)C(O)C(OCc3cccc([N+](=O)[O-])c3)C(Cc3ccccc3)[S+]([O-])C2Cc2ccccc2)c1` (centres unmarked) [120/44]: in the assay with HIV IIIB, the IC50 is below 2000 nM. `O=[N+]([O-])c1ccc(OC2C(O)C(O)C(Oc3ccc([N+](=O)[O-])c(C(F)(F)F)c3)C(Cc3ccccc3)S(=O)(=O)C2Cc2ccccc2)cc1C(F)(F)F` (centres unmarked) [125/27]: the IC50 against HIV protease is below 2000 nM. Consider `O=[N+]([O-])c1cccc(COC2C(O)C(O)C(OCc3cccc([N+](=O)[O-])c3)C(Cc3ccccc3)S(=O)(=O)C2Cc2ccccc2)c1` (centres unmarked) [120/45], for which the IC50 in the assay on HIV IIIB is below 2000 nM. Consider `Cc1ccc(OC2C(O)C(O)C(Oc3ccc(C)cn3)C(Cc3ccccc3)S(=O)(=O)C2Cc2ccccc2)nc1` (centres unmarked) [125/21], for which the IC50 at HIV protease (setting [1]) was in the range of 2000 to 10000 nM.

For `Cc1cccc(COC2C(O)C(O)C(OCc3cccc(C)c3)C(Cc3ccccc3)S(=O)(=O)C2Cc2ccccc2)c1` (centres unmarked) [120/31], the IC50 with HIV IIIB (setting [2]) is below 2000 nM. Take `Cc1ccnc(O[C@@H]2[C@H](O)[C@@H](O)[C@@H](Oc3cc(C)ccn3)[C@@H](Cc3ccccc3)S(=O)(=O)[C@@H]2Cc2ccccc2)c1` [128/35]: at HIV protease (setting [1]), the IC50 fell in the range of 10000 to 50000 nM. On the same count and under the same terms, the result for `Cc1cccc(O[C@@H]2[C@H](O)[C@@H](O)[C@@H](Oc3cccc(C)n3)[C@@H](Cc3ccccc3)S(=O)(=O)[C@@H]2Cc2ccccc2)n1` [128/31] reads 10000 to 50000 nM. Regarding `O=S1(=O)C(Cc2ccccc2)C(NCc2ccccc2)[C@H](O)[C@@H](O)[C@@H](OCc2ccccc2)[C@H]1Cc1ccccc1` (some centres unmarked) [108/34], the IC50 at HIV protease (setting [1]) is below 2000 nM; with HIV IIIB (setting [2]), 2000 to 10000 nM. The corresponding values for `O=[N+]([O-])c1cccc(CO[C@@H]2[C@H](O)[C@@H](O)C(NCc3ccccc3)C(Cc3ccccc3)S(=O)(=O)[C@@H]2Cc2ccccc2)c1` (some centres unmarked) [108/31] are below 2000 nM and 2000 to 10000 nM. Regarding `[O-][S+]1CC(OCc2ccccc2)C(O)C(O)C(OCc2ccccc2)C1Cc1ccccc1` (centres unmarked) [107/3], the IC50 at HIV protease (setting [1]) lay in the range of 2000 to 10000 nM.

`O=S1(=O)C(Cc2ccccc2)C(NCCCc2ccccc2)[C@H](O)[C@@H](O)[C@@H](OCc2ccccc2)[C@H]1Cc1ccccc1` (some centres unmarked) [108/35]: the results for the IC50 on HIV protease (setting [1]) and in the assay on HIV IIIB (setting [2]) were below 2000 nM and 2000 to 10000 nM, respectively.

For the molecule `[O-][S+]1C(Cc2ccccc2)C(OCc2ccccc2)C(O)C(O)C(OCc2ccccc2)C1Cc1ccccc1` (centres unmarked) [108/17], in the assay on HIV IIIB (setting [2]), the IC50 fell in the range of 2000 to 10000 nM. Take `N#Cc1ccc(O[C@@H]2[C@H](O)[C@@H](O)[C@@H](Oc3ccc(C#N)cc3)C[S@@+]([O-])[C@@H]2Cc2ccccc2)cc1` [107/13]: on HIV protease (setting [1]), the IC50 lay in the range of 10000 to 50000 nM.
